In PubChem BioAssay (NCI):
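Dose response: 5 concentrations. Exposure: 48 h. Format: 96-well plates. Endpoint: linear interpolation; highest concentration if not reached. Here, GI50 denotes the concentration required for 50% inhibition of growth. TGI denotes the concentration required for complete inhibition of growth.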

Tests used:
Assay in all cases: NCI tumour cell line growth inhibition, 48 h
[1] = system: M14 melanoma
[2] = system: UO-31 renal
[3] = system: MCF7 breast
[4] = system: HOP-62 NSCLC
[5] = system: NCI/ADR-RES ovarian
[6] = system: CCRF-CEM leukemia
[7] = system: SNB-75 CNS
[8] = system: COLO 205 colon
[9] = system: U251 CNS
[10] = system: SW-620 colon
[11] = system: IGROV1 ovarian
[12] = system: HS 578T breast
[13] = system: SR leukemia
[14] = system: A498 renal
[15] = system: OVCAR-5 ovarian
[16] = system: A549 NSCLC
[17] = system: 786-0 renal
[18] = system: RPMI-8226 leukemia
[19] = system: SNB-19 CNS
[20] = system: HCT-116 colon
[21] = system: SK-MEL-2 melanoma
[22] = system: MDA-MB-231 breast
[23] = system: SF-539 CNS
[24] = system: MOLT-4 leukemia
[25] = system: ACHN renal
[26] = system: OVCAR-4 ovarian
[27] = system: PC-3 prostate
[28] = system: SF-295 CNS
[29] = system: K-562 leukemia
[30] = system: NCI-H23 lung
[31] = system: SF-268 CNS
[32] = system: OVCAR-3 ovarian
[33] = system: RXF 393 renal
[34] = system: MDA-MB-435
[35] = system: NCI-H226 lung
[36] = system: UACC-62 melanoma
[37] = system: NCI-H522 lung
[38] = system: HOP-92 NSCLC
[39] = system: HT29 colon
[40] = system: HCC-2998 colon
[41] = system: SN12C renal
[42] = system: SK-MEL-28 melanoma
[43] = system: KM12 colon
[44] = system: MALME-3M melanoma
[45] = system: HL-60(TB) leukemia
[46] = system: SK-MEL-5 melanoma
[47] = system: UACC-257 melanoma
[48] = system: HCT-15 colon
[49] = system: NCI-H460 lung
[50] = system: TK-10 renal
[51] = system: BT-549 breast
[52] = system: LOX IMVI melanoma
[53] = system: EKVX NSCLC
[54] = system: DU-145 prostate
[55] = system: CAKI-1 renal
[56] = system: T-47D breast

`CCOC(=O)c1c(NCC(=O)Nc2cccc([N+](=O)[O-])c2)sc(C(C)=O)c1C` gave a GI50 [1] of 1500 nM, a TGI [1] of 3280 nM and a GI50 [2] of 1270 nM. The TGI [2] was 2620 nM, the GI50 [3] was 1440 nM and the TGI [3] was 5210 nM. It also gave a GI50 [4] of 2500 nM, a TGI [4] of 6580 nM and a GI50 [5] of 1770 nM. For the same molecule, the TGI [5] was 5390 nM, the GI50 [6] was 585 nM and the TGI [6] was > 100000 nM. For the same molecule, the GI50 [7] was 2030 nM, the TGI [7] was 5610 nM and the GI50 [8] was 1650 nM. It also gave a TGI [8] of 4600 nM, a GI50 [9] of 2360 nM and a TGI [9] of 9140 nM. The GI50 [10] was 491 nM, the TGI [10] was 7690 nM and the GI50 [11] was 414 nM. The TGI [11] was 1620 nM, the GI50 [12] was 2050 nM and the TGI [12] was 5970 nM. For the same molecule, the GI50 [13] was 646 nM, the TGI [13] was > 100000 nM and the GI50 [14] was 1700 nM. It also gave a TGI [14] of 3310 nM, a GI50 [15] of 1420 nM and a TGI [15] of 4190 nM. The GI50 [16] was 2570 nM, the TGI [16] was 8020 nM and the GI50 [17] was 1970 nM. For the same molecule, the TGI [17] was 4210 nM, the GI50 [18] was 2510 nM and the TGI [18] was 6790 nM. The GI50 [19] was 2310 nM, the TGI [19] was 6500 nM and the GI50 [20] was 1710 nM. It also gave a TGI [20] of 5020 nM, a GI50 [21] of 2010 nM and a TGI [21] of 4840 nM. It also gave a GI50 [22] of 2120 nM, a TGI [22] of 4770 nM and a GI50 [23] of 1820 nM. For the same molecule, the TGI [23] was 4480 nM, the GI50 [24] was 570 nM and the TGI [24] was > 100000 nM. The GI50 [25] was 1500 nM, the TGI [25] was 2900 nM and the GI50 [26] was 2230 nM. It also gave a TGI [26] of 6360 nM, a GI50 [27] of 794 nM and a TGI [27] of 3630 nM. It also gave a GI50 [28] of 2170 nM, a TGI [28] of 5110 nM and a GI50 [29] of 1890 nM. The TGI [29] was > 100000 nM, the GI50 [30] was 1140 nM and the TGI [30] was 3450 nM. The GI50 [31] was 2110 nM, the TGI [31] was 5160 nM and the GI50 [32] was 2290 nM. The TGI [32] was 5690 nM, the GI50 [33] was 1210 nM and the TGI [33] was 2510 nM. It also gave a GI50 [34] of 1680 nM, a TGI [34] of 3100 nM and a GI50 [35] of 1640 nM. It also gave a TGI [35] of 4460 nM, a GI50 [36] of 574 nM and a TGI [36] of 2140 nM. It also gave a GI50 [37] of 1280 nM, a TGI [37] of 4120 nM and a GI50 [38] of 1680 nM. It also gave a TGI [38] of 4560 nM, a GI50 [39] of 797 nM and a TGI [39] of 3260 nM. The GI50 [40] was 1980 nM, the TGI [40] was 3910 nM and the GI50 [41] was 1840 nM. It also gave a TGI [41] of 5400 nM, a GI50 [42] of 1780 nM and a TGI [42] of 3710 nM. It also gave a GI50 [43] of 2610 nM, a TGI [43] of 7990 nM and a GI50 [44] of 1510 nM. It also gave a TGI [44] of 3060 nM, a GI50 [45] of 2570 nM and a TGI [45] of 14200 nM. The GI50 [46] was 1680 nM, the TGI [46] was 3170 nM and the GI50 [47] was 2500 nM. The TGI [47] was 7470 nM, the GI50 [48] was 845 nM and the TGI [48] was 5350 nM. It also gave a GI50 [49] of 1210 nM, a TGI [49] of 3260 nM and a GI50 [50] of 2100 nM. For the same molecule, the TGI [50] was 6810 nM, the GI50 [51] was 1440 nM and the TGI [51] was 4850 nM. The GI50 [52] was 411 nM, the TGI [52] was 1670 nM and the GI50 [53] was 2100 nM. For the same molecule, the TGI [53] was 5520 nM, the GI50 [54] was 2210 nM and the TGI [54] was 5910 nM. The GI50 [55] was 1270 nM, the TGI [55] was 3650 nM and the GI50 [56] was 2310 nM. For the same molecule, the TGI [56] was 6710 nM.
